Columns and labels:
ghrelin receptor = ghrelin receptor (Homo sapiens, UniProt Q92847); experiment: Inverse agonist assay, Example 4; assay type: cell-based; settings: inverse agonist activity
Text: The inverse agonist activity at the ghrelin receptor for compounds of the invention can be determined using the methods described in Intl. Pat. Appl. Publ. No. WO 2004/056869 and Holst, B.; Cygankiewicz, A.; Halkjaer, T.; Ankersen, A.; Schwartz, T. W. High constitutive signaling of the ghrelin receptor—identification of a potent inverse agonist. Mol. Endocrinol. 2003, 17, 2201-2210.

[1] = molecular target: T1, HEK293 cells expressing GHS-R1a receptor (Homo sapiens, UniProt Q92847); experiment: Fluorescence functional assay (ghrelin receptor), Example 2; assay type: cell-based; settings: assay of Example 2 (fluorescence, calcium)
T1 construct: host or cells: HEK293 cells (grown under geneticin selection)
T1 sequence (Q92847 whole entry): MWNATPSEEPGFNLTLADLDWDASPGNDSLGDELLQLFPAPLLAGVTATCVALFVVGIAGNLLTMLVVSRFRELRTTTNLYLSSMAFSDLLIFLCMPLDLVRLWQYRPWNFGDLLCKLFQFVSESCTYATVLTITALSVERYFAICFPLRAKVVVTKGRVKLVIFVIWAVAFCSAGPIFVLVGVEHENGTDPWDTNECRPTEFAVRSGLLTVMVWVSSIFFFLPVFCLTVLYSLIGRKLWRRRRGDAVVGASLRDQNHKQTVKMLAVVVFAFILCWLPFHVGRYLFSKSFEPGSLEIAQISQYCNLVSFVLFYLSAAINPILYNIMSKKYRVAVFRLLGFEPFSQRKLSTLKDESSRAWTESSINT
Experimental: The compounds of the present invention were evaluated for their ability to interact at the human ghrelin receptor utilizing a competitive radioligand binding assay, fluorescence assay or Aequorin functional assay as described in the examples below. Such methods can be conducted, if so desired, in a high throughput manner to permit the simultaneous evaluation of many compounds.
• 1. Hanks' BSS without phenol red (Life Technologies) • 2. Hepes buffer • 3. Probenecid (Sigma) • 4. FLIPR Calcium-3 Assay Kit (Molecular Devices #R-8091) • 5. Falcon cell culture 96-well black/clear bottom plates • 6. 0.05% trypsin-EDTA • 7. […]
The plates were removed from the incubator and the media removed by inversion of the plates. […] For agonist testing, after reading for ten (10) sec, 25 μL of 2× test compound or control was injected into the assay plate. Fluorescence was monitored for an additional 50 sec. A reading was taken every two (2) seconds for a total of 30 readings per assay point.
For antagonist testing, after reading for ten (10) sec, 12.5 μL of 3× test compound or control was injected into the assay plate and allowed to react for three (3) min. At that time, 4 nM ghrelin (corresponds to EC80) was injected and fluorescence was monitored for an additional 60 sec. A reading was taken every two (2) seconds for a total of 125 readings per data point. […]

Sequence of ghrelin receptor (Q92847 whole entry): as above

With `CCC(C)[C@@H]1NCCOc2ccccc2/C=C/CNC(=O)[C@@H](Cc2ccccc2)NC(=O)[C@H](C(C)O)N(C)C1=O` (some centres unmarked) [Compound 502] the IC50 (ghrelin receptor) was 0.001 to 0.1 µM and the Ki [1] was 0.1 to 1 µM.
